# Measurements as given in ChEMBL document CHEMBL5537113, “Discovery of 1,2-diaryl-3-oxopyrazolidin-4-carboxamides as a new class of MurA enzyme inhibitors and characterization of their antibacterial activity” (Eur J Med Chem, 2023).
# Calls of active or inactive are those of the source. The rule behind the calls is not given here.
# How the values were obtained:
# [1] = tested on: Escherichia coli; experiment: Antibacterial activity against Escherichia coli harboring tolC deletion mutant assessed as reduction in microbial growth incubated for 16 hrs by serial dilution method; type: functional
# [2] = target: UDP-N-acetylglucosamine 1-carboxyvinyltransferase (Escherichia coli K-12) (UniProt P0A749); experiment: Inhibition of Escherichia coli K12 His-tagged MurA expressed in Escherichia coli BL21 cells at 50 uM using UNAG as substrate pre incubated for 15 mins followed by substrate addition and measured after 15 mins by microplate reader analysis relative to control; details: time 30.0 min
# Sequence of UDP-N-acetylglucosamine 1-carboxyvinyltransferase (Escherichia coli K-12) (P0A749 whole entry): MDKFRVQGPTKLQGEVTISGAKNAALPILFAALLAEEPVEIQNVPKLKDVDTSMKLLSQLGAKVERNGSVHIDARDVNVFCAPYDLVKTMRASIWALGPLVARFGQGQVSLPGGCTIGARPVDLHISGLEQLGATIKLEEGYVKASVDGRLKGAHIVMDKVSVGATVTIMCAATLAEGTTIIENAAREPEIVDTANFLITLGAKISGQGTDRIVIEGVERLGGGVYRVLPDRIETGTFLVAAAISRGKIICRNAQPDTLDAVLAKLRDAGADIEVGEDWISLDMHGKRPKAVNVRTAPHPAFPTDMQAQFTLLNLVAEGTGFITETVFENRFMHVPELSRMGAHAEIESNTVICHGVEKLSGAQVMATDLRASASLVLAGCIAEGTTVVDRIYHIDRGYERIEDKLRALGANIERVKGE
# [3] = tested on: Staphylococcus aureus; experiment: Antibacterial activity against Staphylococcus aureus Newman D2C NCTC 10833 assessed as reduction in microbial growth incubated for 16 hrs by serial dilution method; type: functional
# [4] = target: UDP-N-acetylglucosamine 1-carboxyvinyltransferase (Escherichia coli K-12, UniProt P0A749); experiment: Inhibition of Escherichia coli K12 His-tagged MurA expressed in Escherichia coli BL21 cells using UNAG as substrate pre incubated for 15 mins followed by substrate addition and measured after 15 mins by microplate reader analysis
# Sequence of UDP-N-acetylglucosamine 1-carboxyvinyltransferase (P0A749 whole entry): as above
# [5] = tested on: Staphylococcus aureus; experiment: Antibacterial activity against methicillin sensitive Staphylococcus aureus NRS107 assessed as reduction in microbial growth by CLSI based broth microdilution method; type: functional
# [6] = tested on: Staphylococcus aureus; experiment: Antibacterial activity against methicillin resistant Staphylococcus aureus NRS119 assessed as reduction in microbial growth by CLSI based broth microdilution method; type: functional
# [7] = tested on: Staphylococcus aureus; experiment: Antibacterial activity against methicillin resistant Staphylococcus aureus USA300 assessed as reduction in microbial growth by CLSI based broth microdilution method; type: functional
# [8] = tested on: Staphylococcus aureus; experiment: Antibacterial activity against vancomycin resistant Staphylococcus aureus 10 assessed as reduction in microbial growth by CLSI based broth microdilution method; type: functional
# [9] = tested on: Clostridioides difficile; experiment: Antibacterial activity against Clostridioides difficile ATCC BAA1870 assessed as reduction in microbial growth incubated for 48 hrs by broth microdilution method; type: functional
# [10] = Drug uptake in Escherichia coli harboring tolC deletion mutant at 10 uM incubated for 30 mins by LC analysis; type: ADME; details: 0.5 h
# [11] = Drug uptake in Escherichia coli harboring tolC deletion mutant assessed per 1.6x10^9 cells at 10 uM incubated for 30 mins by LC analysis; type: ADME; details: 0.5 h
Structure (SMILES),MIC [1],inhibition [2],MIC [3],IC50 [4],other results
O=C(Nc1cccnc1)C1CN(c2cccc(Cl)c2)N(c2cccc(Cl)c2)C1=O (stereo not given),38 µM,8.7%,> 40 µM,,
O=C(NCc1ccco1)C1CN(c2cccc(Cl)c2)N(c2cccc(Cl)c2)C1=O (stereo not given),> 40 µM,34%,> 40 µM,,
CN1C(=O)C(C(=O)NC2CCSC2=O)CN1c1cccc(Cl)c1 (stereo not given),> 40 µM,inactive,> 40 µM,,
Cc1csc(NC(=O)C2CN(c3cccc(Cl)c3)N(c3cccc(Cl)c3)C2=O)n1 (stereo not given),40 µM,60.2%,> 40 µM,39.3 µM,
O=C(NCc1ccccn1)C1CN(c2cccc(Cl)c2)N(c2cccc(Cl)c2)C1=O (stereo not given),> 40 µM,inactive,> 40 µM,,
O=C(Nc1ccc2cn[nH]c2c1)C1CN(c2cccc(Cl)c2)N(c2cccc(Cl)c2)C1=O (stereo not given),20 µM,65.2%,> 40 µM,35.4 µM,
O=C1SCCC1NC(=O)C1CN(c2cccc(Cl)c2)N(c2cccc(Cl)c2)C1=O (stereo not given),17 µM,35%,11 µM,,
O=C(Nc1ccccn1)C1CN(c2cccc(Cl)c2)N(c2cccc(Cl)c2)C1=O (stereo not given),> 40 µM,30.5%,> 40 µM,,
N#Cc1ccc(NC(=O)C2CN(c3cccc(Cl)c3)N(c3cccc(Cl)c3)C2=O)cn1 (stereo not given),> 40 µM,32.2%,> 40 µM,,
CN1C(=O)C(C(=O)Nc2ncc(C#N)s2)CN1c1cccc(Cl)c1 (stereo not given),> 40 µM,inactive,> 40 µM,,
O=C(Nc1ccc2[nH]ncc2c1)C1CN(c2cccc(Cl)c2)N(c2cccc(Cl)c2)C1=O (stereo not given),23 µM,59.5%,> 40 µM,44.1 µM,
O=C(Nc1ccc2[nH]cnc2c1)C1CN(c2cccc(Cl)c2)N(c2cccc(Cl)c2)C1=O (stereo not given),18 µM,74.2%,> 40 µM,33.5 µM,
O=C(Nc1ccc2ncsc2c1)C1CN(c2cccc(Cl)c2)N(c2cccc(Cl)c2)C1=O (stereo not given),> 40 µM,44.7%,> 40 µM,,
O=C(NCc1ccncc1)C1CN(c2cccc(Cl)c2)N(c2cccc(Cl)c2)C1=O (stereo not given),> 40 µM,inactive,> 40 µM,,
Cc1cnc(NC(=O)C2CN(c3cccc(Cl)c3)N(c3cccc(Cl)c3)C2=O)s1 (stereo not given),40 µM,59.6%,> 40 µM,22 µM,
O=C(Nc1cccc(-c2cn[nH]c2)c1)C1CN(c2cccc(Cl)c2)N(c2cccc(Cl)c2)C1=O (stereo not given),> 40 µM,60.4%,> 40 µM,31 µM,
CSc1nnc(NC(=O)C2CN(c3cccc(Cl)c3)N(c3cccc(Cl)c3)C2=O)s1 (stereo not given),38 µM,63.4%,> 40 µM,26.9 µM,
O=C(Nc1ccsc1)C1CN(c2cccc(Cl)c2)N(c2cccc(Cl)c2)C1=O (stereo not given),> 40 µM,24.7%,> 40 µM,,
N#Cc1cnc(NC(=O)C2CN(c3ccccc3)N(c3ccccc3)C2=O)s1 (stereo not given),> 40 µM,inactive,> 40 µM,,
O=C(Nc1nc(C(F)(F)F)cs1)C1CN(c2cccc(Cl)c2)N(c2cccc(Cl)c2)C1=O (stereo not given),> 40 µM,59.2%,40 µM,38.6 µM,
O=C(Nc1ncc(Cl)s1)C1CN(c2cccc(Cl)c2)N(c2cccc(Cl)c2)C1=O (stereo not given),> 40 µM,67.7%,> 40 µM,24 µM,
O=C(NCc1cccnc1)C1CN(c2cccc(Cl)c2)N(c2cccc(Cl)c2)C1=O (stereo not given),> 40 µM,11.8%,> 40 µM,,
O=C(Nc1nccs1)C1CN(c2cccc(Cl)c2)N(c2cccc(Cl)c2)C1=O (stereo not given),> 40 µM,17.8%,> 40 µM,,
O=C1SCCC1NC(=O)C1CN(c2ccccc2)N(c2ccccc2)C1=O (stereo not given),> 40 µM,inactive,> 40 µM,,
O=C(Nc1cncc(Cl)c1)C1CN(c2cccc(Cl)c2)N(c2cccc(Cl)c2)C1=O (stereo not given),> 40 µM,18.2%,> 40 µM,,
CC(=O)NC[C@H]1CN(c2ccc(N3CCOCC3)c(F)c2)C(=O)O1 [LINEZOLID],,,,,MIC [5]: 0.5 µg/mL; MIC [6]: 32 µg/mL; MIC [7]: 1 µg/mL; MIC [8]: 0.5 µg/mL; MIC [9]: 1 µg/mL
O=C(Nc1nc2ccccc2s1)C1CN(c2cccc(Cl)c2)N(c2cccc(Cl)c2)C1=O (stereo not given),> 40 µM,65.2%,> 40 µM,18 µM,Drug uptake [10]: 573 nM; Drug uptake [11]: 19 µM
